Laboratory results published in patent EP1803452A1, “ESTER DERIVATIVE AND PHARMACEUTICAL USE THEREOF” (Japan Tobacco, Inc., priority 2004, dated 2006).

How the values were obtained:
[1] = Metabolic stability test in liver S9; type: in vitro ADME; conditions: pH 7.4, human liver S9 2 mg protein/mL, LC/MS; for remaining at 10 min: unchanged form after 10 minutes at 37°C, read-out: Remaining rate in human liver S9 (%/10min); for remaining at 1 h: unchanged form after 60 minutes at 37°C, read-out: Remaining rate in human liver S9 (%/60min)
Procedure, shortened: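 Compound from DMSO solution was incubated at 37°C with human liver S9 (final 2 mg protein/mL) in 100 mM potassium phosphate pH 7.4 with an NADPH-regenerating system for 0, 10 and 60 minutes. Reactions were stopped with acetonitrile/0.1% formic acid. Unchanged compound was measured by LC/MS as remaining rate (%) relative to zero time.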

[2] = Metabolic stability test in plasma; type: in vitro ADME, human; conditions: LC/MS; for remaining at 10 min: unchanged form after 10 minutes at 37°C in human plasma, read-out: Remaining rate in human plasma (%/10min); for remaining at 1 h: unchanged form after 60 minutes at 37°C in human plasma, read-out: Remaining rate in human plasma (%/60min)
Procedure, shortened: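 Compound in DMSO spiked into human, mouse or hamster plasma, incubated at 37°C for 0, 10 and 60 minutes, then quenched with acetonitrile/formic acid (final 0.1%). Unchanged compound in supernatant quantified by LC/MS; remaining rate (%) relative to time zero.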

[3] = Stability test in buffer (pH 7.4); type: physicochemical; conditions: phosphate buffer/acetonitrile 7:3, 100 mM potassium phosphate buffer (pH 7.4) and acetonitrile 7:3 (v/v), LC/MS; for remaining at 10 min: 10 minutes at 37°C, read-out: Buf. remaining rate (%/10min); for remaining at 1 h: 60 minutes at 37°C, read-out: Buf. remaining rate (%/60min)
Procedure, shortened: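 Compound from DMSO solution incubated at 37°C in 100 mM potassium phosphate buffer/acetonitrile 7:3 (v/v) for 0, 10 and 60 min, then quenched with acetonitrile containing formic acid (final 0.1%). Unchanged compound in supernatant quantified by LC/MS; remaining rate (%) = amount at each time / amount at zero time × 100.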

remaining at 10 min [1] [%]	remaining at 1 h [1] [%]	remaining at 10 min [2] [%]	remaining at 1 h [2] [%]	remaining at 10 min [3] [%]	remaining at 1 h [3] [%]	SMILES
13	4	12	0	100	101	CCOC(=O)c1cc(C)c(OC(=O)CCCc2ccc(NC(=O)c3ccc(C)nc3-c3ccc(C(F)(F)F)cc3)c(C(=O)N(C)C)c2)c(C(=O)OC)c1 [Compound 1-52, 4-[4-(3-dimethylcarbamoyl-4-{[6-methyl-2-(4-trifluoromethylphenyl)pyridine-3-carbonyl]amino}phenyl)butyryloxy]-5-methylisophthalic acid 1-ethyl ester 3-methyl ester]
0	0	0	0	104	103	COC(=O)c1ccc(OC(=O)CCCc2ccc(NC(=O)c3ccccc3-c3ccc(C(F)(F)F)cc3)c(C(=O)N(C)C)c2)cc1C(F)(F)F [Compound 1-21, 4-(4-{3-dimethylcarbamoyl-4-[(4'-trifluoromethylbiphenyl-2-carbonyl)amino]phenyl}butyryloxy)-2-trifluoromethylbenzoic acid methyl ester]
4	0	52	0	107	109	CCCC(=O)c1ccc(OC(=O)CCCc2ccc(NC(=O)c3ccccc3-c3ccc(C(F)(F)F)cc3)c(C(=O)N(C)C)c2)cc1 [Compound 1-93, 4-(3-dimethylcarbamoyl-4-{(4'-trifluoromethylbiphenyl-2-carbonyl)amino}phenyl)butyric acid 4-butyrylphenyl ester]
23	3	0	0	113	124	CCCOC(=O)c1cc(Cl)c(OC(=O)CCCc2ccc(NC(=O)c3ccc(C)nc3-c3ccc(C(F)(F)F)cc3)c(C(=O)N(C)C)c2)c(OC)c1 [Compound 1-75, 3-chloro-4-[4-(3-dimethylcarbamoyl-4-{[6-methyl-2-(4-trifluoromethylphenyl)pyridine-3-carbonyl]amino}phenyl)butyryloxy]-5-methoxybenzoic acid propyl ester]
0	0	24	0	95	97	COC(=O)c1ccc(OC(=O)CCCc2ccc(NC(=O)c3ccc(C)nc3-c3ccc(C(F)(F)F)cc3)c(C(=O)N(C)C)c2)cc1 [Compound 1-13, 4-[4-(3-dimethylcarbamoyl-4-{[6-methyl-2-(4-trufluoromethylphenyl)pyridine-3-carbonyl]amino}phenyl)butyryloxy)benzoic acid methyl ester]
0	0	23	0	99	102	COC(=O)c1ccc(OC(=O)CCCc2ccc(NC(=O)c3ccccc3-c3ccc(C(F)(F)F)cc3)c(C(=O)N3CCOCC3)c2)cc1 [Compound 1-26, 4-(4-{3-(morpholine-4-carbonyl)-4-[(4'-trifluoromethylbiphenyl-2-carbonyl)amino]phenyl}butyryloxy)benzoic acid methyl ester]
6	1	0	0	100	100	CCOc1cc(C(=O)OC)cc(OC)c1OC(=O)CCCc1ccc(NC(=O)c2ccc(C)nc2-c2ccc(C(F)(F)F)cc2)c(C(=O)N(C)C)c1 [Compound 1-49, 4-[4-(3-dimethylcarbamoyl-4-{[6-methyl-2-(4-trifluoromethylphenyl)pyridine-3-carbonyl]amino}phenyl)butyryloxy]-3-ethoxy-5-methoxybenzoic acid methyl ester]
6	3	49	0	102	104	CN(C)C(=O)c1cc(CCCC(=O)Oc2ccc(C(=O)OCCOCc3ccccc3)cc2)ccc1NC(=O)c1ccccc1-c1ccc(C(F)(F)F)cc1 [Compound 1-89, 4-[4-(3-dimethylcarbamoyl-4-{(4'-trifluoromethylbiphenyl-2-carbonyl)amino}phenyl)butyryloxy]benzoic acid 2-benzyloxyethyl ester]
12	2	89	48	101	102	COC(=O)c1cc(C)c(OC(=O)CCCc2ccc(NC(=O)c3ccc(C)nc3-c3ccc(C(F)(F)F)cc3)c(C(=O)N(C)C)c2)c(C(F)(F)F)c1 [Compound 1-45, 4-[4-(3-dimethylcarbamoyl-4-([6-methyl-2-(4-trifluoromethylphenyl)pyridine-3-carbonyl]amino}phenyl)butyryloxy]-3-methyl-5-trifluoromethylbenzoic acid methyl ester]
27	8	48	0	99	100	CCOC(=O)c1cc(C)c(OC(=O)CCCc2ccc(NC(=O)c3ccc(C)nc3-c3ccc(C(F)(F)F)cc3)c(C(=O)N(C)C)c2)c(Cl)c1 [Compound 1-112, 3-chloro-4-[4-(3-dimethylcarbamoyl-4-{[6-methyl-2-(4-trifluoromethylphenyl)pyridine-3-carbonyl]amino}phenyl)butyryloxy]-5-methylbenzoic acid ethyl ester]
3	0	77	17	103	105	CCc1cc(C(=O)OC)ccc1OC(=O)CCCc1ccc(NC(=O)c2ccccc2-c2ccc(C(F)(F)F)cc2)c(C(=O)N(C)C)c1 [Compound 1-67, 4-[4-(3-dimethylcarbamoyl-4-{(4'-trifluoromethylbiphenyl-2-carbonyl)amino}phenyl)butyryloxy]-3-ethylbenzoic acid methyl ester]
3	0	67	8	101	103	COC(=O)c1ccc(OC(=O)CCCc2ccc(NC(=O)c3ccccc3-c3ccc(C(F)(F)F)cc3)c(C(=O)N(C)C)c2)c(C)c1 [Compound 1-66, 4-[4-(3-dimethylcarbamoyl-4-{(4'-trifluoromethylbiphenyl-2-carbonyl)amino}phenyl)butyryloxy]-3-methylbenzoic acid methyl ester]
0	0	0	0	99	99	COC(=O)c1ccc(OC(=O)CCCc2ccc(NC(=O)c3ccccc3-c3ccc(C(F)(F)F)cc3)c(C(=O)N(C)C)c2)c(Cl)c1 [Compound 1-11, 3-chloro-4-(4-{3-dimethylcarbamoyl-4-[(4'-trifluoromethylbiphenyl-2-carbonyl)amino]phenyl}butyryloxy)benzoic acid methyl ester]
0	0	0	0	101	98	COC(=O)c1ccc(OC(=O)CCCc2ccc(NC(=O)c3ccccc3-c3ccc(C(F)(F)F)cc3)c(C(=O)N(C)C)c2)c(F)c1 [Compound 1-10, 4-(4-{3-dimethylcarbamoyl-4-[(4'-trifluoromethylbiphenyl-2-carbonyl)amino]phenyl}butyryloxy)-3-fluoro benzoic acid methyl ester]
0	0	0	0	100	105	COC(=O)c1ccc(OC(=O)CCCc2ccc(NC(=O)c3ccccc3-c3ccc(C(F)(F)F)cc3)c(C(=O)N(C)C)c2)cc1OC [Compound 1-17, 4-(4-{3-dimethylcarbamoyl-4-[(4'-trifluoromethylbiphenyl-2-carbonyl)amino]phenyl}butyryloxy) -2-methoxybenzoic acid methyl ester]
5	0	52	0	103	103	CCc1cc(C(=O)OC)cc(F)c1OC(=O)CCCc1ccc(NC(=O)c2ccc(C)nc2-c2ccc(C(F)(F)F)cc2)c(C(=O)N(C)C)c1 [Compound 1-42, 4-[4-(3-dimethylcarbamoyl-4-{[6-methyl-2-(4-trifluoromethylphenyl)pyridine-3-carbonyl]amino}phenyl)butyryloxy]-3-ethyl-5-fluorobenzoic acid methyl ester]
